# From patent publication US20200289392A1, “A MELANOGENESIS INHIBITOR COMPOSITION” (Dow Global Technologies LLC, priority 2017, published 2020)
# Biological target: T1, tyrosinase (Homo sapiens, UniProt P14679)
# T1 sequence (P14679 19-529): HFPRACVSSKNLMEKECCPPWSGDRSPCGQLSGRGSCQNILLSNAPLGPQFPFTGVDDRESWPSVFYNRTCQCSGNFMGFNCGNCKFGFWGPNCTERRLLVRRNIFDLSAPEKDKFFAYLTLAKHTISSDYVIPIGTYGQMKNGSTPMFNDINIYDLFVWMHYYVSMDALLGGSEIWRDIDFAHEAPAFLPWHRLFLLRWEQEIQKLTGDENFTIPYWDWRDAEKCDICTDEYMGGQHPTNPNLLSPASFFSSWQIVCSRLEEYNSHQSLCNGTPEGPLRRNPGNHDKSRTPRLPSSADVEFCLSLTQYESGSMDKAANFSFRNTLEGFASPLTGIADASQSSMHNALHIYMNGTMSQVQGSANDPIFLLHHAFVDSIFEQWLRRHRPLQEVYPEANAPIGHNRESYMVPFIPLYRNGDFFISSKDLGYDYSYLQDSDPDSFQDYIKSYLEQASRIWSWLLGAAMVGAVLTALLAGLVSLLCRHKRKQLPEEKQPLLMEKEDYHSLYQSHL
# Test: Tyrosinase inhibition
# Assay type: biochemical
# Conditions: 0.1 wt % active concentration; compared to 0.1 wt % kojic acid
row,SMILES,tyrosinase inhibition activity compared to that of kojic acid
1,"COc1cc(/C=[N+](\[O-])C(C)C)ccc1O [VAN-IPHA, (Z)—N-(4-hydroxy-3-methoxybenzylidine)propan-2-amine oxide]",negligible
2,"CC(C)/[N+]([O-])=C/c1ccc(O)cc1 [pHBz-IPHA, (Z)—N-(4-hydroxybenzylidene)propan-2-amine oxide]",about 60%
